Type in all cases: in vivo
The subject of test [1] is Japanese bulrush (Scirpus juncoides Roxb.). In words: Test Example 1: herbicidal effect by soil application to paddy field. Particulars: paddy field soil application; active ingredient 1,000 g per 1 hectare; wettable powder added dropwise to water surface the day after sowing; examined on the 21st day after application. In outline:
(§1)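 Plants were sown in flooded (3 cm) paddy soil and evaluated for herbicidal effect 21 days after soil application in a greenhouse.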

Test [2] has as its system early watergrass (Echinochloa oryzicola Vasing). Described as above. Particulars: paddy field soil application; active ingredient 1,000 g per 1 hectare; wettable powder added dropwise to water surface the day after sowing; examined on the 21st day after application. In outline:
as §1

Test [3] concerns heartshape false pickerelweed (Monochoria vaginalis (Burm.f.) C.Presl). The description is as above. Particulars: paddy field soil application; active ingredient 1,000 g per 1 hectare; wettable powder added dropwise to water surface the day after sowing; examined on the 21st day after application. The gist of the method:
as §1

Test [4] relates to barnyardgrass (Echinochloa crus-galli (L.) P. Beauv. var. crus-galli). In words: Test Example 2: herbicidal effect by soil application to upland field. Particulars: soil surface spray, upland field soil, 1,000 g active ingredient per hectare, 21st day after application. In outline: (§2)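 Scoring on a standard scale took place 21 days after application, with plants kept in a greenhouse. Active ingredient (1,000 g/ha, as diluted wettable powder, 1,000 L/ha) was sprayed evenly onto soil directly after sowing and covering seeds.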

The test system of test [5] is green foxtail (Setaria viridis (L.) P. Beauv.). The description is as above. Particulars: soil surface spray, upland field soil, 1,000 g active ingredient per hectare, 21st day after application. The gist of the method:
as §2

The subject of test [6] is slender amaranth (Amaranthus viridis L.). Described as above. Particulars: soil surface spray, upland field soil, 1,000 g active ingredient per hectare, 21st day after application. The gist of the method:
as §2

The test system of test [7] is velvetleaf (Abutilon theophrasti medicus). Described as above. Particulars: soil surface spray, upland field soil, 1,000 g active ingredient per hectare, 21st day after application. The gist of the method:
as §2

For test [8], the system named is barnyardgrass (Echinochloa crus-galli (L.) P. Beauv. var. crus-galli). In words: Test Example 3: herbicidal effect by application to upland field (foliage treatment). Particulars: foliage treatment, 1,000 g active ingredient per 1 hectare, 14th day after application, greenhouse. The gist of the method: (§3)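 Post-emergence spray at 1,000 g AI/ha of wettable powder in water (1,000 L/ha), onto seedlings grown 2 weeks in greenhouse field-soil pots. Graded day 14.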

Test [9] has as its system green foxtail (Setaria viridis (L.) P. Beauv.). Described as above. Particulars: foliage treatment, 1,000 g active ingredient per 1 hectare, 14th day after application, greenhouse. The gist of the method: as §3
The test system of test [10] is slender amaranth (Amaranthus viridis L.). Described as above. Particulars: foliage treatment, 1,000 g active ingredient per 1 hectare, 14th day after application, greenhouse. In outline:
as §3

Test [11] deals with velvetleaf (Abutilon theophrasti medicus). The description is as above. Particulars: foliage treatment, 1,000 g active ingredient per 1 hectare, 14th day after application, greenhouse. The gist of the method: as §3

With `O=C(C1=C(O)C2CCC(C2)C1=O)c1ccc(C(F)(F)F)n(CC2CCCO2)c1=O` (stereo not drawn) [III-38], the “herbicidal effect, Scirpus juncoides Roxb.” value in [1] was 5 (90% or more of herbicidal effect and crop phytotoxicity). Also, the “herbicidal effect, Echinochloa oryzicola Vasing” value in test [2] was 5 (90% or more of herbicidal effect and crop phytotoxicity). Moreover, the “herbicidal effect, Monochoria vaginalis (Burm. f.) C. Presl” value (“herbicidal effect, Monochoria vaginalis” for short) in test [3] is 5 (90% or more of herbicidal effect and crop phytotoxicity). Further, the “herbicidal effect (index), Barnyardgrass” value in test [4] is 5 (90% or more of herbicidal effect and crop phytotoxicity). For the same molecule, the “herbicidal effect (index), Green Foxtail” value in test [5] was 3 (50 to less than 70% of herbicidal effect and crop phytotoxicity). In test [6], the “herbicidal effect (index), Slender Amaranth” value is 5 (90% or more of herbicidal effect and crop phytotoxicity). The “herbicidal effect (index), Velvetleaf” value in test [7] was 5 (90% or more of herbicidal effect and crop phytotoxicity). Besides, the “herbicidal effect, Barnyardgrass” value in [8] was 5 (90% or more of herbicidal effect and crop phytotoxicity). Moreover, the “herbicidal effect, Green Foxtail” value in test [9] is 4 (70 to less than 90% of herbicidal effect and crop phytotoxicity). The “herbicidal effect, Slender Amaranth” value in test [10] was 5 (90% or more of herbicidal effect and crop phytotoxicity). The “herbicidal effect, Velvetleaf” value in test [11] is 5 (90% or more of herbicidal effect and crop phytotoxicity).

On to `Cn1ncc(C(=O)c2ccc(C(F)(F)F)n(C)c2=O)c1O` [IV-1, 4-[1,2-dihydro-1-methyl-2-oxo-6-(trifluoromethyl)pyridine-3-carbonyl]-5-hydroxy-1-methyl-1H-pyrazole], for which, in [1], the “herbicidal effect, Scirpus juncoides Roxb.” value is 5 (90% or more of herbicidal effect and crop phytotoxicity). For the same molecule, in [2], the “herbicidal effect, Echinochloa oryzicola Vasing” value was 5 (90% or more of herbicidal effect and crop phytotoxicity). Besides, the “herbicidal effect, Monochoria vaginalis” value in test [3] is 5 (90% or more of herbicidal effect and crop phytotoxicity). Further, the “herbicidal effect (index), Barnyardgrass” value in [4] was 5 (90% or more of herbicidal effect and crop phytotoxicity). Besides, the “herbicidal effect (index), Green Foxtail” value in [5] is 4 (70 to less than 90% of herbicidal effect and crop phytotoxicity). For the same molecule, in [6], the “herbicidal effect (index), Slender Amaranth” value was 5 (90% or more of herbicidal effect and crop phytotoxicity). Moreover, the “herbicidal effect (index), Velvetleaf” value in test [7] was 5 (90% or more of herbicidal effect and crop phytotoxicity). The “herbicidal effect, Barnyardgrass” value in [8] is 4 (70 to less than 90% of herbicidal effect and crop phytotoxicity). For the same molecule, in test [9], the “herbicidal effect, Green Foxtail” value was 4 (70 to less than 90% of herbicidal effect and crop phytotoxicity). For the same molecule, in test [10], the “herbicidal effect, Slender Amaranth” value was 5 (90% or more of herbicidal effect and crop phytotoxicity). The “herbicidal effect, Velvetleaf” value in test [11] was 5 (90% or more of herbicidal effect and crop phytotoxicity).

Turning to `CCn1c(C(F)(F)F)ccc(C(=O)c2cnn(C)c2O)c1=O` [IV-2], the “herbicidal effect, Scirpus juncoides Roxb.” value in [1] is 5 (90% or more of herbicidal effect and crop phytotoxicity). In test [2], the “herbicidal effect, Echinochloa oryzicola Vasing” value was 5 (90% or more of herbicidal effect and crop phytotoxicity). Besides, the “herbicidal effect, Monochoria vaginalis” value in test [3] is 5 (90% or more of herbicidal effect and crop phytotoxicity). Also, the “herbicidal effect (index), Barnyardgrass” value in test [4] is 5 (90% or more of herbicidal effect and crop phytotoxicity). Also, the “herbicidal effect (index), Green Foxtail” value in test [5] is 5 (90% or more of herbicidal effect and crop phytotoxicity). Besides, the “herbicidal effect (index), Slender Amaranth” value in [6] is 5 (90% or more of herbicidal effect and crop phytotoxicity). For the same molecule, in test [7], the “herbicidal effect (index), Velvetleaf” value was 5 (90% or more of herbicidal effect and crop phytotoxicity). The “herbicidal effect, Barnyardgrass” value in test [8] was 5 (90% or more of herbicidal effect and crop phytotoxicity). In addition, the “herbicidal effect, Green Foxtail” value in test [9] is 5 (90% or more of herbicidal effect and crop phytotoxicity). Also, the “herbicidal effect, Slender Amaranth” value in test [10] was 5 (90% or more of herbicidal effect and crop phytotoxicity). The “herbicidal effect, Velvetleaf” value in test [11] was 5 (90% or more of herbicidal effect and crop phytotoxicity).

As for `CCCn1c(C(F)(F)F)ccc(C(=O)c2cnn(C)c2O)c1=O` [IV-3], the “herbicidal effect, Scirpus juncoides Roxb.” value in test [1] is 5 (90% or more of herbicidal effect and crop phytotoxicity). Also, in test [2], the “herbicidal effect, Echinochloa oryzicola Vasing” value is 5 (90% or more of herbicidal effect and crop phytotoxicity). Further, in test [3], the “herbicidal effect, Monochoria vaginalis” value was 5 (90% or more of herbicidal effect and crop phytotoxicity). In addition, in test [4], the “herbicidal effect (index), Barnyardgrass” value is 5 (90% or more of herbicidal effect and crop phytotoxicity). Also, in test [5], the “herbicidal effect (index), Green Foxtail” value was 5 (90% or more of herbicidal effect and crop phytotoxicity). The “herbicidal effect (index), Slender Amaranth” value in [6] was 5 (90% or more of herbicidal effect and crop phytotoxicity). For the same molecule, in test [7], the “herbicidal effect (index), Velvetleaf” value was 5 (90% or more of herbicidal effect and crop phytotoxicity). The “herbicidal effect, Barnyardgrass” value in test [8] is 5 (90% or more of herbicidal effect and crop phytotoxicity). The “herbicidal effect, Green Foxtail” value in [9] is 5 (90% or more of herbicidal effect and crop phytotoxicity). Also, the “herbicidal effect, Slender Amaranth” value in test [10] is 5 (90% or more of herbicidal effect and crop phytotoxicity). The “herbicidal effect, Velvetleaf” value in test [11] is 5 (90% or more of herbicidal effect and crop phytotoxicity).

For the molecule `CCCn1c(C(F)(F)F)ccc(C(=O)c2cnn(C)c2OC(=O)c2ccccc2)c1=O` [IV-4], in [1], the “herbicidal effect, Scirpus juncoides Roxb.” value was 5 (90% or more of herbicidal effect and crop phytotoxicity). In addition, in [2], the “herbicidal effect, Echinochloa oryzicola Vasing” value was 5 (90% or more of herbicidal effect and crop phytotoxicity). For the same molecule, the “herbicidal effect, Monochoria vaginalis” value in test [3] was 5 (90% or more of herbicidal effect and crop phytotoxicity). Besides, the “herbicidal effect (index), Barnyardgrass” value in test [4] was 5 (90% or more of herbicidal effect and crop phytotoxicity). In addition, in test [5], the “herbicidal effect (index), Green Foxtail” value was 5 (90% or more of herbicidal effect and crop phytotoxicity). Further, the “herbicidal effect (index), Slender Amaranth” value in test [6] was 5 (90% or more of herbicidal effect and crop phytotoxicity). In addition, the “herbicidal effect (index), Velvetleaf” value in [7] is 5 (90% or more of herbicidal effect and crop phytotoxicity). For the same molecule, the “herbicidal effect, Barnyardgrass” value in test [8] is 5 (90% or more of herbicidal effect and crop phytotoxicity). Moreover, the “herbicidal effect, Green Foxtail” value in test [9] was 4 (70 to less than 90% of herbicidal effect and crop phytotoxicity). In addition, the “herbicidal effect, Slender Amaranth” value in test [10] was 5 (90% or more of herbicidal effect and crop phytotoxicity). For the same molecule, the “herbicidal effect, Velvetleaf” value in test [11] was 5 (90% or more of herbicidal effect and crop phytotoxicity).

As to `CCCCn1c(C(F)(F)F)ccc(C(=O)c2cnn(C)c2O)c1=O` [IV-6], the “herbicidal effect, Scirpus juncoides Roxb.” value in test [1] is 5 (90% or more of herbicidal effect and crop phytotoxicity). Further, the “herbicidal effect, Echinochloa oryzicola Vasing” value in test [2] is 5 (90% or more of herbicidal effect and crop phytotoxicity). In test [3], the “herbicidal effect, Monochoria vaginalis” value is 5 (90% or more of herbicidal effect and crop phytotoxicity). Moreover, the “herbicidal effect (index), Barnyardgrass” value in test [4] is 5 (90% or more of herbicidal effect and crop phytotoxicity). Moreover, the “herbicidal effect (index), Green Foxtail” value in test [5] is 5 (90% or more of herbicidal effect and crop phytotoxicity). Moreover, in test [6], the “herbicidal effect (index), Slender Amaranth” value is 5 (90% or more of herbicidal effect and crop phytotoxicity). The “herbicidal effect (index), Velvetleaf” value in test [7] was 5 (90% or more of herbicidal effect and crop phytotoxicity). Further, the “herbicidal effect, Barnyardgrass” value in [8] is 5 (90% or more of herbicidal effect and crop phytotoxicity). Further, the “herbicidal effect, Green Foxtail” value in [9] was 5 (90% or more of herbicidal effect and crop phytotoxicity). In addition, in test [10], the “herbicidal effect, Slender Amaranth” value was 5 (90% or more of herbicidal effect and crop phytotoxicity). In test [11], the “herbicidal effect, Velvetleaf” value is 5 (90% or more of herbicidal effect and crop phytotoxicity).

Values taken from US8076487B2, “Pyridone derivative and herbicide” (Kumiai Chemical Industry Co., Ltd., priority 2006, dated 2011).
